Reference: the supplement of paper PMC11208160

Experiment: recombinant barcode read abundance after kanamycin selection (control-corrected) (log10(CPM+1)); higher = more efficient recombination; sequences stand for … in AGTGCAGAGAAAATCGGCCAGTTTTCTCTGCCTGCAGTCCGCATGCCGT…ATTTATGCAGCGGACTGCCTTTCTCCCAAAGTGATAAACCGGACAGTATCATGGACCGGTTTTCCCGGTAATCCGTATTTGCAAGGTTGGTTTCACT; site = the 11-nt target
In short: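 Recombination efficiency in this pooled E. coli screen uses counts per million of barcodes at recombinant junctions, averaged and corrected against the control. The reported form is log10(CPM+1). Two replicates were plated on chloramphenicol/ampicillin LB agar as control and two on chloramphenicol/ampicillin/kanamycin with 0.1 mM IPTG.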

| Sequence | recombinant barcode read abundance (log10) |
| --- | --- |
| CGGTCCCTATGGGTTCTAACCTGTTGCCAAG [CGGTCCCCTTG_LTGcore_TA_RTGcore_CT] (site CGGTCCCCTTG) (LTG core: TA, RTG core: CT) | 0.0831 |
| GAGCCCAAGTGGGTTCTAACCTGTTGCCTCT [GAGCCCACTAG_LTGcore_AG_RTGcore_AG] (site GAGCCCACTAG) (LTG core: AG, RTG core: AG) | 0.229 |
| GAGCCCACATGGGTTCTAACCTGTTGCCTAG [GAGCCCACTAG_LTGcore_CA_RTGcore_CT] (site GAGCCCACTAG) (LTG core: CA, RTG core: CT) | 0.304 |
| GAGCCCACTTGGGTTCTAACCTGTTGCCTCC [GAGCCCACTAG_LTGcore_CT_RTGcore_GG] (site GAGCCCACTAG) (LTG core: CT, RTG core: GG) | 0.136 |
| GAGCCCACTTGGGTTCTAACCTGTTGCCTGA [GAGCCCACTAG_LTGcore_CT_RTGcore_TC] (site GAGCCCACTAG) (LTG core: CT, RTG core: TC) | 0.207 |
| GAGCCCACTTGGGTTCTAACCTGTTGCCTGC [GAGCCCACTAG_LTGcore_CT_RTGcore_GC] (site GAGCCCACTAG) (LTG core: CT, RTG core: GC) | 0.3 |
| GAGCCCACTTGGGTTCTAACCTGTTGCCTGG [GAGCCCACTAG_LTGcore_CT_RTGcore_CC] (site GAGCCCACTAG) (LTG core: CT, RTG core: CC) | 0.911 |
| GAGCCCACTTGGGTTCTAACCTGTTGCCTGT [GAGCCCACTAG_LTGcore_CT_RTGcore_AC] (site GAGCCCACTAG) (LTG core: CT, RTG core: AC) | 0.522 |
| GAGCCCACTTGGGTTCTAACCTGTTGCCTTC [GAGCCCACTAG_LTGcore_CT_RTGcore_GA] (site GAGCCCACTAG) (LTG core: CT, RTG core: GA) | 0.518 |
| GAGCCCAGCTGGGTTCTAACCTGTTGCCTAG [GAGCCCACTAG_LTGcore_GC_RTGcore_CT] (site GAGCCCACTAG) (LTG core: GC, RTG core: CT) | 0.266 |
| GAGCCCATGTGGGTTCTAACCTGTTGCCTCA [GAGCCCACTAG_LTGcore_TG_RTGcore_TG] (site GAGCCCACTAG) (LTG core: TG, RTG core: TG) | 0.995 |
| GAGGCCTCTTGGGTTCTAACCTGTTGCCAAC [GAGGCCTCTTG_LTGcore_CT_RTGcore_GT] (site GAGGCCTCTTG) (LTG core: CT, RTG core: GT) | 1.25 |
| GAGGCCTCTTGGGTTCTAACCTGTTGCCAGA [GAGGCCTCTTG_LTGcore_CT_RTGcore_TC] (site GAGGCCTCTTG) (LTG core: CT, RTG core: TC) | 0.245 |
| GAGGCCTCTTGGGTTCTAACCTGTTGCCATG [GAGGCCTCTTG_LTGcore_CT_RTGcore_CA] (site GAGGCCTCTTG) (LTG core: CT, RTG core: CA) | 0.0789 |
| GAGGCCTGGTGGGTTCTAACCTGTTGCCAAG [GAGGCCTCTTG_LTGcore_GG_RTGcore_CT] (site GAGGCCTCTTG) (LTG core: GG, RTG core: CT) | 0.103 |
| GAGGCCTGGTGGGTTCTAACCTGTTGCCACC [GAGGCCTCTTG_LTGcore_GG_RTGcore_GG] (site GAGGCCTCTTG) (LTG core: GG, RTG core: GG) | 0.445 |
| GAGTCCAAATGGGTTCTAACCTGTTGCGTTT [GAGTCCACTAC_LTGcore_AA_RTGcore_AA] (site GAGTCCACTAC) (LTG core: AA, RTG core: AA) | 0.0227 |
| GAGTCCAACTGGGTTCTAACCTGTTGCGTGT [GAGTCCACTAC_LTGcore_AC_RTGcore_AC] (site GAGTCCACTAC) (LTG core: AC, RTG core: AC) | 0.0932 |
| GAGTCCAATTGGGTTCTAACCTGTTGCGTAG [GAGTCCACTAC_LTGcore_AT_RTGcore_CT] (site GAGTCCACTAC) (LTG core: AT, RTG core: CT) | 0.156 |
| GAGTCCACCTGGGTTCTAACCTGTTGCGTGG [GAGTCCACTAC_LTGcore_CC_RTGcore_CC] (site GAGTCCACTAC) (LTG core: CC, RTG core: CC) | 0.0684 |
| GAGTCCACGTGGGTTCTAACCTGTTGCGTAG [GAGTCCACTAC_LTGcore_CG_RTGcore_CT] (site GAGTCCACTAC) (LTG core: CG, RTG core: CT) | 0.114 |
| GAGTCCACTTGGGTTCTAACCTGTTGCGTAT [GAGTCCACTAC_LTGcore_CT_RTGcore_AT] (site GAGTCCACTAC) (LTG core: CT, RTG core: AT) | 0.389 |
| GAGTCCACTTGGGTTCTAACCTGTTGCGTCG [GAGTCCACTAC_LTGcore_CT_RTGcore_CG] (site GAGTCCACTAC) (LTG core: CT, RTG core: CG) | 0.702 |

| Sequence | recombinant barcode read abundance (log10) |
| --- | --- |
| GAGTCCAGCTGGGTTCTAACCTGTTGCGTAG [GAGTCCACTAC_LTGcore_GC_RTGcore_CT] (site GAGTCCACTAC) (LTG core: GC, RTG core: CT) | 0.0179 |
| GAGTCCAGTTGGGTTCTAACCTGTTGCGTAG [GAGTCCACTAC_LTGcore_GT_RTGcore_CT] (site GAGTCCACTAC) (LTG core: GT, RTG core: CT) | 0.283 |
| GAGTCCATTTGGGTTCTAACCTGTTGCGTAA [GAGTCCACTAC_LTGcore_TT_RTGcore_TT] (site GAGTCCACTAC) (LTG core: TT, RTG core: TT) | 0.0342 |
| GAGTCCTACTGGGTTCTAACCTGTTGCCTAG [GAGTCCTCTAG_LTGcore_AC_RTGcore_CT] (site GAGTCCTCTAG) (LTG core: AC, RTG core: CT) | 0.674 |
| GAGTCCTACTGGGTTCTAACCTGTTGCCTGT [GAGTCCTCTAG_LTGcore_AC_RTGcore_AC] (site GAGTCCTCTAG) (LTG core: AC, RTG core: AC) | 0.011 |
| GAGTCCTAGTGGGTTCTAACCTGTTGCCTAG [GAGTCCTCTAG_LTGcore_AG_RTGcore_CT] (site GAGTCCTCTAG) (LTG core: AG, RTG core: CT) | 0.445 |
| GAGTCCTCATGGGTTCTAACCTGTTGCCTAG [GAGTCCTCTAG_LTGcore_CA_RTGcore_CT] (site GAGTCCTCTAG) (LTG core: CA, RTG core: CT) | 1.08 |
| GAGTCCTCCTGGGTTCTAACCTGTTGCCTGG [GAGTCCTCTAG_LTGcore_CC_RTGcore_CC] (site GAGTCCTCTAG) (LTG core: CC, RTG core: CC) | 0.561 |
| GAGTCCTCTTGGGTTCTAACCTGTTGCCTAA [GAGTCCTCTAG_LTGcore_CT_RTGcore_TT] (site GAGTCCTCTAG) (LTG core: CT, RTG core: TT) | 1.08 |
| GAGTCCTCTTGGGTTCTAACCTGTTGCCTCC [GAGTCCTCTAG_LTGcore_CT_RTGcore_GG] (site GAGTCCTCTAG) (LTG core: CT, RTG core: GG) | 1.21 |
| GAGTCCTGCTGGGTTCTAACCTGTTGCCTAG [GAGTCCTCTAG_LTGcore_GC_RTGcore_CT] (site GAGTCCTCTAG) (LTG core: GC, RTG core: CT) | 0.0703 |
| GAGTCCTTATGGGTTCTAACCTGTTGCCTTA [GAGTCCTCTAG_LTGcore_TA_RTGcore_TA] (site GAGTCCTCTAG) (LTG core: TA, RTG core: TA) | 0.136 |
| GAGTCCTTCTGGGTTCTAACCTGTTGCCTAG [GAGTCCTCTAG_LTGcore_TC_RTGcore_CT] (site GAGTCCTCTAG) (LTG core: TC, RTG core: CT) | 0.0148 |
| GAGTCCTTCTGGGTTCTAACCTGTTGCCTGA [GAGTCCTCTAG_LTGcore_TC_RTGcore_TC] (site GAGTCCTCTAG) (LTG core: TC, RTG core: TC) | 0.0603 |
| GAGTCCTTGTGGGTTCTAACCTGTTGCCTCA [GAGTCCTCTAG_LTGcore_TG_RTGcore_TG] (site GAGTCCTCTAG) (LTG core: TG, RTG core: TG) | 0.235 |
| GCGCGACAATGGGTTCTAACCTGTTGCTTTT [GCGCGACCTAA_LTGcore_AA_RTGcore_AA] (site GCGCGACCTAA) (LTG core: AA, RTG core: AA) | 0.188 |
| GCGCGACCATGGGTTCTAACCTGTTGCTTTG [GCGCGACCTAA_LTGcore_CA_RTGcore_CA] (site GCGCGACCTAA) (LTG core: CA, RTG core: CA) | 0.125 |
| GCGCGACCCTGGGTTCTAACCTGTTGCTTGG [GCGCGACCTAA_LTGcore_CC_RTGcore_CC] (site GCGCGACCTAA) (LTG core: CC, RTG core: CC) | 0.0343 |
| GCGCGACCTTGGGTTCTAACCTGTTGCTTAA [GCGCGACCTAA_LTGcore_CT_RTGcore_TT] (site GCGCGACCTAA) (LTG core: CT, RTG core: TT) | 0.166 |
| GCGCGACCTTGGGTTCTAACCTGTTGCTTAT [GCGCGACCTAA_LTGcore_CT_RTGcore_AT] (site GCGCGACCTAA) (LTG core: CT, RTG core: AT) | 0.103 |
| GCGCGACCTTGGGTTCTAACCTGTTGCTTCA [GCGCGACCTAA_LTGcore_CT_RTGcore_TG] (site GCGCGACCTAA) (LTG core: CT, RTG core: TG) | 0.481 |
| GCGCGACCTTGGGTTCTAACCTGTTGCTTCG [GCGCGACCTAA_LTGcore_CT_RTGcore_CG] (site GCGCGACCTAA) (LTG core: CT, RTG core: CG) | 0.116 |
